Test results taken from patent US10053462B2, “P2X7 modulators” (Jansssen Pharmaceutica NV, priority 2013, dated 2018).
Read-outs that look alike come from different tables or passages of the source.

Molecular target: P2X7 (Homo sapiens (Human), UniProt Q99572)
Assay: P2X7 antagonism in human peripheral blood mononuclear cells (PBMCs), IL-1β release
Assay type: cell-based
Settings: LPS 30 ng/ml + Bz-ATP 0.5 mM; for remaining activity at 10 µM: read-out: PBMC 10 μM (% control); for PBMC 10 μM (% control): Table 1, 10 μM compound
Protocol: P2X7 Antagonism in Human Peripheral Blood Mononuclear Cells (PBMCs) and Human Whole Blood.
Human blood was collected using a blood donor program. PBMCs were isolated from blood using a Ficoll density gradient technique. Briefly, blood was laid on Ficoll solution and centrifuged at RT for 20 minutes at 2000 rpm. The buffy layer (between red blood cells and plasma) was carefully collected by aspiration, washed with PBS and centrifuged again at 1500 rpm for 15 minutes. The resulting cell pellet was washed and plated on 96 well-plates for experiments. For the Human Whole Blood experiments, 150 μl of human blood was platted on 96 well-plates. Lipopolysaccharide (LPS) (30 ng/ml) was added to each well and incubated for 1 hour. Test compounds were then added and incubated for 30 minutes. The P2X7 agonist, 2′(3′)-O-(4-benzoylbenzoyl) adenosine 5′-triphosphate (Bz-ATP) was then added at a final concentration of 0.5 mM (PBMC) or 1 mM (blood). Cells were incubated for an additional 1.5 hours. At that point, supernatant was collected and stored for IL-1β assay using manufacturer's protocol for enzyme-linked immunosorbent assay (ELISA). Data was expressed as percent control, where control is defined as the difference in IL-1β release in LPS+Bz-ATP samples and LPS only samples. Data was plotted as response (% control) versus concentration to generate IC50 values. […] Data are analyzed and graphed on Graphpad Prism 5. For analysis, each concentration point is averaged from triplicate values and the averaged values are plotted on Graphpad Prism.

[1] = P2X7, Table 2 (additional runs), 10 μM compound

Sequence of P2X7 (Q99572 whole entry): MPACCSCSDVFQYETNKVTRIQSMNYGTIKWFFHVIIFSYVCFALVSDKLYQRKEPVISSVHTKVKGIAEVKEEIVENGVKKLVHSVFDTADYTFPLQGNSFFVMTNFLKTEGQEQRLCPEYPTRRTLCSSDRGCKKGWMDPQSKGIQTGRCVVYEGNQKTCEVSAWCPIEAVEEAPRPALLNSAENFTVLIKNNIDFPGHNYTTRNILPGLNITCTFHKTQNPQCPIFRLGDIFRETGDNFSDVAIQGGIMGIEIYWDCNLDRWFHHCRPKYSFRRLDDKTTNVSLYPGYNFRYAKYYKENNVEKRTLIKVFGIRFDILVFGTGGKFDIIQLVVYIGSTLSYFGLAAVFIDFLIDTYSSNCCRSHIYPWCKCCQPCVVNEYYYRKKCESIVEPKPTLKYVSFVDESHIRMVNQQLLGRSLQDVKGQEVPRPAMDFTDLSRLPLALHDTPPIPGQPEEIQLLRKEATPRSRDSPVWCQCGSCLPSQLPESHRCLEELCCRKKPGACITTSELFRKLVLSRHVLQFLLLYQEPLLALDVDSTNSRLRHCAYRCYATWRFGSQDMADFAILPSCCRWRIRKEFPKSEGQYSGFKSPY

Row | SMILES | remaining activity at 10 µM [1] [%] | PBMC 10 μM (% control) | remaining activity at 10 µM (P2X7, Table 1, 10 μM compound) [%]
1 | O=C(c1ccnc(C(F)(F)F)c1Cl)N1[C@H]2CCC[C@@H]1c1nnc(-c3cccs3)n1C2 (stereo in doubt) [Example 35, (6S*,10R*)-11-{[3-Chloro-2-(trifluoromethyl)pyridin-4-yl]carbonyl}-3-thiophen-2-yl-5,6,7,8,9,10-hexahydro-6,10-epimino[1,2,4]triazolo[4,3-a]azocine] | 82.2 | 82.2 | –
2 | O=C(c1cccc(C(F)(F)F)c1Cl)N1[C@@H]2CCC[C@H]1c1nnc(-c3ccc(F)cn3)n1C2 (stereo in doubt) [Example 12, (6R*,10S*)-11-{[2-Chloro-3-(trifluoromethyl)phenyl]carbonyl}-3-(5-fluoropyridin-2-yl)-5,6,7,8,9,10-hexahydro-6,10-epimino[1,2,4]triazolo[4,3-a]azocine] | 3.6 | – | -0.8
3 | O=C(c1cccc(C(F)(F)F)c1Cl)N1[C@H]2CCC[C@@H]1c1nnc(-c3ccc(F)cn3)n1C2 (stereo in doubt) [Example 11, (6S*,10R*)-11-{[2-Chloro-3-(trifluoromethyl)phenyl]carbonyl}-3-(5-fluoropyridin-2-yl)-5,6,7,8,9,10-hexahydro-6,10-epimino[1,2,4]triazolo[4,3-a]azocine] | 38.9 | – | 38.9
4 | Cc1c(C(=O)N2[C@H]3CC[C@@H]2c2nnc(-c4cscn4)n2C3)cccc1C(F)(F)F [Example 53, (6S,9R)-10-{[2-Methyl-3-(trifluoromethyl)phenyl]carbonyl}-3-(1,3-thiazol-4-yl)-6,7,8,9-tetrahydro-5H-6,9-epimino[1,2,4]triazolo[4,3-a]azepine] | 4 | 4.0 | –
5 | Cc1cccc(-c2nnc3n2C[C@H]2CCC[C@@H]3N2C(=O)c2cccc(C(F)(F)F)c2Cl)n1 (stereo in doubt) [Example 24, (6R*,10S*)-11-{[2-Chloro-3-(trifluoromethyl)phenyl]carbonyl}-3-(6-methylpyridin-2-yl)-5,6,7,8,9,10-hexahydro-6,10-epimino[1,2,4]triazolo[4,3-a]azocine] | 32.7 | – | 32.7
6 | O=C(c1ccnc(C(F)(F)F)c1F)N1[C@@H]2CCC[C@H]1c1nnc(-c3ccccn3)n1C2 (stereo in doubt) [Example 198, (6R,10S)-11-{[3-Fluoro-2-(trifluoromethyl)pyridin-4-yl]carbonyl}-3-pyridin-2-yl-5,6,7,8,9,10-hexahydro-6,10-epimino[1,2,4]triazolo[4,3-a]azocine] | 4.1 | – | –
7 | O=C(c1cccc(C(F)(F)F)c1Cl)N1[C@@H]2CCC[C@H]1c1nnc(-c3cc(C(F)(F)F)ccn3)n1C2 (stereo in doubt) [Example 196, (6R,10S)-11-{[2-Chloro-3-(trifluoromethyl)phenyl]carbonyl}-3-[4-(trifluoromethyl)pyridin-2-yl]-5,6,7,8,9,10-hexahydro-6,10-epimino[1,2,4]triazolo[4,3-a]azocine] | -0.2 | – | –
8 | O=C(c1cccc(C(F)(F)F)c1Cl)N1[C@H]2CCC[C@@H]1c1nnc(-c3cccnc3)n1C2 (stereo in doubt) [Example 14, (6S*,10R*)-11-{[2-Chloro-3-(trifluoromethyl)phenyl]carbonyl}-3-pyridin-3-yl-5,6,7,8,9,10-hexahydro-6,10-epimino[1,2,4]triazolo[4,3-a]azocine] | 2.4 | – | 2.4
9 | O=C(c1ccc(Cl)c(F)c1Cl)N1[C@@H]2CCC[C@H]1c1nnc(-c3ccccn3)n1C2 (stereo in doubt) [Example 202, (6R,10S)-11-[(2,4-Dichloro-3-fluorophenyl)carbonyl]-3-pyridin-2-yl-5,6,7,8,9,10-hexahydro-6,10-epimino[1,2,4]triazolo[4,3-a]azocine] | -2.3 | – | –
10 | O=C(c1cccc(C(F)(F)F)c1Cl)N1[C@H]2CCC[C@@H]1c1nnc(-c3cscn3)n1C2 (stereo in doubt) [Example 8, (6S*,10R*)-11-{[2-Chloro-3-(trifluoromethyl)phenyl]carbonyl}-3-(1,3-thiazol-4-yl)-5,6,7,8,9,10-hexahydro-6,10-epimino[1,2,4]triazolo[4,3-a]azocine] | 7.3 | – | 7.3
11 | O=C(c1ccnc(C(F)(F)F)c1Cl)N1[C@@H]2CCC[C@H]1c1nnc(-c3cccs3)n1C2 (stereo in doubt) [Example 36, (6R*,10S*)-11-{[3-Chloro-2-(trifluoromethyl)pyridin-4-yl]carbonyl}-3-thiophen-2-yl-5,6,7,8,9,10-hexahydro-6,10-epimino[1,2,4]triazolo[4,3-a]azocine] | -1.2 | – | -1.2
12 | Cc1ncsc1-c1nnc2n1C[C@@H]1CC[C@H]2N1C(=O)c1cccc(C(F)(F)F)c1Cl [Example 59, (6S,9R)-10-{[2-Chloro-3-(trifluoromethyl)phenyl]carbonyl}-3-(4-methyl-1,3-thiazol-5-yl)-6,7,8,9-tetrahydro-5H-6,9-epimino[1,2,4]triazolo[4,3-a]azepine] | 0.6 | 0.6 | –
13 | Cc1ccnc(-c2nnc3n2C[C@H]2CCC[C@@H]3N2C(=O)c2cccc(C(F)(F)F)c2Cl)c1 (stereo in doubt) [Example 194, (6R,10S)-11-{[2-Chloro-3-(trifluoromethyl)phenyl]carbonyl}-3-(4-methylpyridin-2-yl)-5,6,7,8,9,10-hexahydro-6,10-epimino[1,2,4]triazolo[4,3-a]azocine] | -13 | – | –
14 | O=C(c1cccc(C(F)(F)F)c1Cl)N1[C@H]2CCC[C@@H]1c1nnc(-c3ccc(F)cc3)n1C2 (stereo in doubt) [Example 5, (6S*,10R*)-11-{[2-Chloro-3-(trifluoromethyl)phenyl]carbonyl}-3-(4-fluorophenyl)-5,6,7,8,9,10-hexahydro-6,10-epimino[1,2,4]triazolo[4,3-a]azocine] | -4.4 | – | -4.4
15 | Cc1ccc(-c2nnc3n2C[C@H]2CCC[C@@H]3N2C(=O)c2ccnc(C(F)(F)F)c2Cl)s1 (stereo in doubt) [Example 39, (6R*,10S*)-11-{[3-Chloro-2-(trifluoromethyl)pyridin-4-yl]carbonyl}-3-(5-methylthiophen-2-yl)-5,6,7,8,9,10-hexahydro-6,10-epimino[1,2,4]triazolo[4,3-a]azocine] | 5.8 | – | 5.8
16 | O=C(c1ccc(F)c(C(F)(F)F)c1Cl)N1[C@@H]2CCC[C@H]1c1nnc(-c3ccccn3)n1C2 (stereo in doubt) [Example 200, (6R,10S)-11-{[2-Chloro-4-fluoro-3-(trifluoromethyl)phenyl]carbonyl}-3-pyridin-2-yl-5,6,7,8,9,10-hexahydro-6,10-epimino[1,2,4]triazolo[4,3-a]azocine] | 7.7 | – | –
17 | Cc1cccc(-c2nnc3n2C[C@@H]2CCC[C@H]3N2C(=O)c2cccc(C(F)(F)F)c2Cl)n1 (stereo in doubt) [Example 23, (6S*,10R*)-11-{[2-Chloro-3-(trifluoromethyl)phenyl]carbonyl}-3-(6-methylpyridin-2-yl)-5,6,7,8,9,10-hexahydro-6,10-epimino[1,2,4]triazolo[4,3-a]azocine] | 8 | – | 8
18 | COc1ccnc(-c2nnc3n2C[C@@H]2CCC[C@H]3N2C(=O)c2cccc(C(F)(F)F)c2Cl)c1 (stereo in doubt) [Example 26, (6S*,10R*)-11-{[2-Chloro-3-(trifluoromethyl)phenyl]carbonyl}-3-(4-methoxypyridin-2-yl)-5,6,7,8,9,10-hexahydro-6,10-epimino[1,2,4]triazolo[4,3-a]azocine] | 9.2 | – | 9.2
19 | O=C(c1cccc(C(F)(F)F)c1Cl)N1[C@H]2CC[C@@H]1c1nnc(-c3ccccn3)n1C2 [Example 41, (6S,9R)-10-{[2-Chloro-3-(trifluoromethyl)phenyl]carbonyl}-3-pyridin-2-yl-6,7,8,9-tetrahydro-5H-6,9-epimino[1,2,4]triazolo[4,3-a]azepine] | -20 | −20.0 | –
20 | O=C(c1cccc(C(F)(F)F)c1Cl)N1[C@@H]2CCC[C@H]1c1nnc(-c3ncc(F)cn3)n1C2 (stereo in doubt) [Example 18, (6R*,10S*)-11-{[2-Chloro-3-(trifluoromethyl)phenyl]carbonyl}-3-(5-fluoropyrimidin-2-yl)-5,6,7,8,9,10-hexahydro-6,10-epimino[1,2,4]triazolo[4,3-a]azocine] | -9 | – | -9
